According to BindingDB's records for doi:10.1016/j.ejmech.2017.08.046 (University of Torino, 2017):

target: Prostaglandin G/H synthase 2 (Homo sapiens) (UniProt P35354); experiment: Inhibition of human COX2 assessed as reduction in PGF2alpha production by ELISA
Sequence (P35354 whole entry, looked up): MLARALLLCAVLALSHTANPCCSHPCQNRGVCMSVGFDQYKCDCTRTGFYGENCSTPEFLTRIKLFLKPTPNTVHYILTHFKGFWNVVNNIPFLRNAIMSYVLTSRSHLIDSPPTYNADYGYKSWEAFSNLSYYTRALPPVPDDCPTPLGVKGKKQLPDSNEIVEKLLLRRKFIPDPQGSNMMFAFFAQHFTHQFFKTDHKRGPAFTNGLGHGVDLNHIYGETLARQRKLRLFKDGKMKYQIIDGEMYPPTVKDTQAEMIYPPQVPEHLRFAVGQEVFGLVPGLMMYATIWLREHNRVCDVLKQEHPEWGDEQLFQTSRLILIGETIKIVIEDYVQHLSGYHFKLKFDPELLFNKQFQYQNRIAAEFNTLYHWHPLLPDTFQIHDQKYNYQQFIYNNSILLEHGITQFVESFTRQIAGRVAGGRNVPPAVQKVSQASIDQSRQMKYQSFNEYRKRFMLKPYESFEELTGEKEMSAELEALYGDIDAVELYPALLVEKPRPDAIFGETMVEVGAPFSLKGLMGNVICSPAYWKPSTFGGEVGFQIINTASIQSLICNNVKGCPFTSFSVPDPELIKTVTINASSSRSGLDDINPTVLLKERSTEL

IC50, > 100 µM:
O=C(Nc1cccc(C(F)(F)F)c1)c1c(O)nnn1Cc1ccccc1
COc1ccc(Cn2nnc(O)c2C(=O)Nc2cccc(C(F)(F)F)c2)cc1
O=C(Nc1cccc(C(F)(F)F)c1)c1c(O)nnn1CC1CC1
